# Data reported in patent US8759520B2, “Compounds for treating cancer” (Boehringer Ingelheim International GmbH, priority 2008, dated 2014).
# Target: T1, Bcl-2 (Homo sapiens, UniProt P10415)
# Experiment: Homogeneous HTS assay for inhibitors of the Bcl-2 : Bak (72-87) BH3 domain interaction, fluorescence polarisation (2D-FIDA)
# Format: binding
# Details: fluorescence polarisation, fluorescent labelled Bak BH3 domain derived peptide; read-out: IC50 [μM] Bcl-2
# T1 sequence (P10415 whole entry, species assumed, the tested form may be a part): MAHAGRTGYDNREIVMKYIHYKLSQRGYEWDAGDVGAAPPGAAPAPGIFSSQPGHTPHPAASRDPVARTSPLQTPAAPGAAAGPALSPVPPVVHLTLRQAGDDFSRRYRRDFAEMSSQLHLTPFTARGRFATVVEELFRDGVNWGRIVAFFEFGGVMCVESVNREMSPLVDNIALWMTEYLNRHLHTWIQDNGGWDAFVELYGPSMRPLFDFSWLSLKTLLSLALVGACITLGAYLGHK
row,Compound,IC50 [µM]
1,"COc1ccccc1OCCn1c(=N)n(Cc2ccccc2)c2ccccc21 [Compound 95, 1-Benzyl-3-[2-(2-methoxy-phenoxy)-ethyl]-1,3-dihydro-benzoimidazol-2-ylideneamine]",11 to 100
2,"N=c1n(CCCOc2ccccc2)c2ccccc2n1Cc1ccccc1F [Compound 96, 1-(2-Fluoro-benzyl)-3-(3-phenoxy-propyl)-1,3-dihydro-benzoimidazol-2-ylideneamine]",11 to 100
3,"N=c1n(CCCOc2ccc(F)cc2)c2ccccc2n1Cc1ccccc1 [Compound 97, 1-Benzyl-3-[3-(4-fluoro-phenoxy)-propyl]-1,3-dihydro-benzoimidazol-2-ylideneamine]",11 to 100
4,"CCCCCn1c(=N)n(CC(O)COc2ccccc2OC)c2ccccc21 (stereo not shown) [Compound 98, 1-(2-Imino-3-pentyl-2,3-dihydro-benzoimidazol-1-yl)-3-(2-methoxy-phenoxy)-propan-2-ol]",11 to 100
5,"Cc1ccc(OCC(O)Cn2c(=N)n(Cc3ccccc3)c3ccccc32)cc1 (stereo not shown) [Compound 99, 1-(3-Benzyl-2-imino-2,3-dihydro-benzoimidazol-1-yl)-3-p-tolyloxy-propan-2-ol]",11 to 100
6,"Cc1ccc(Cn2c(=N)n(CC(O)COc3ccccc3)c3ccccc32)cc1 (stereo not shown) [Compound 100, 1-[2-Imino-3-(4-methyl-benzyl)-2,3-dihydro-benzoimidazol-1-yl]-3-phenoxy-propan-2-ol]",11 to 100
7,"CCCCCCn1c(=N)n(CC(O)COc2ccccc2OC)c2ccccc21 (stereo not shown) [Compound 101, 1-(3-Hexyl-2-imino-2,3-dihydro-benzoimidazol-1-yl)-3-(2-methoxy-phenoxy)-propan-2-ol]",11 to 100
8,"N=c1n(Cc2ccccc2Cl)c2ccccc2n1CC(O)COc1ccccc1 (stereo not shown) [Compound 102, 1-[3-(2-Chloro-benzyl)-2-imino-2,3-dihydro-benzoimidazol-1-yl]-3-phenoxy-propan-2-ol]",> 100
9,"N=c1n(Cc2ccc(Cl)cc2)c2ccccc2n1CC(O)COc1ccccc1 (stereo not shown) [Compound 103, 1-[3-(4-Chloro-benzyl)-2-imino-2,3-dihydro-benzoimidazol-1-yl]-3-phenoxy-propan-2-ol]",11 to 100
10,"CC(C)(C)c1ccc(Cn2c(=N)n(CC(O)COc3ccccc3)c3ccccc32)cc1 (stereo not shown) [Compound 104, 1-[3-(4-tert-Butyl-benzyl)-2-imino-2,3-dihydro-benzoimidazol-1-yl]-3-phenoxy-propan-2-ol]",11 to 100
11,"N=c1n(Cc2ccc(Cl)cc2)c2ccccc2n1CC(O)COc1ccc(Cl)cc1 (stereo not shown) [Compound 105, 1-[3-(4-Chloro-benzyl)-2-imino-2,3-dihydro-benzoimidazol-1-yl]-3-(4-chloro-phenoxy)-propan-2-ol]",11 to 100
12,"N=c1n(Cc2ccccc2)c2ccccc2n1CC(O)COc1ccc(Cl)cc1Cl (stereo not shown) [Compound 106, 1-(3-Benzyl-2-imino-2,3-dihydro-benzoimidazol-1-yl)-3-(2,4-dichloro-phenoxy)-propan-2-ol]",11 to 100

# Target: T1, Bcl-2
# Experiment: not given
# Details: reported by Wang and co-workers; read-out: equilibrium binding constant KD to Bcl-2 protein; cited from earlier work
row,Compound,Kd [µM]
1,"BH3 domain derived peptide ligand, sequence GQVGRQLAIIGDDINR, fluorescently labelled for the assay",~0.2
